Test results as given in PMC9765455 (Science Translational Medicine, 2022).
Several values for one entry are separate records, joined by “and”; a condition that tells them apart may be missing. Equal entries are not always repeated. Where two headings read alike, the source gives them in different places.

How the values were obtained:
[1] = system: SARS-CoV-2 Delta variant; format: in vivo, Syrian hamsters; settings: for lung pathology / histopathological findings of viral pneumonia: hamster, in vivo; for histopathological severity of viral pneumonia / viral RNA by ISH: therapeutic treatment
[2] = system: SARS-CoV-2 Delta variant; design: species or system Syrian hamsters; settings: hamster, in vivo
[3] = system: SARS-CoV-2 Delta variant; design: species or system Syrian hamsters; settings: hamster, in vivo; remark: listed apart in the source
[4] = system: SARS-CoV-2 Delta variant; format: in vivo, Syrian hamsters; settings: for viral load in the lungs of contact hamsters: 6 days after co-housing
[5] = system: SARS-CoV-2 Delta variant; experiment: Light sheet microscopy of whole lungs (viral antigen distribution); design: species or system Syrian hamsters; settings: hamster, in vivo
[6] = system: SARS-CoV-2 Delta variant; experiment: Time of addition assay in Calu-3 cells; format: cell-based
[7] = system: SARS-CoV-2 Delta variant; experiment: Antiviral activity of main protease inhibitors with P-gp inhibitor CP-100356 (intracellular viral RNA); format: cell-based; settings: Vero-TMPRSS2; S-217622 100 nM, nirmatrelvir 300 nM; CP-100356 1 μM
[8] = system: SARS-CoV-2 Delta variant; format: cell-based; settings: Vero-TMPRSS2 and Calu-3 cells
[9] = system: SARS-CoV-2 Delta variant; format: cell-based; settings: HBE cells
[10] = system: SARS-CoV-2 Omicron variant (lineage BA.1); format: cell-based; settings: Vero-TMPRSS2, fig. S5
[11] = system: SARS-CoV-2 Delta variant; format: cell-based; settings: HBE cells, 333 nM or more; detection limit of the plaque assay
[12] = system: SARS-CoV-2 Delta variant; format: cell-based; settings: Vero-TMPRSS2 and Calu-3 cells; remark: listed apart in the source
[13] = prophylactic, MPV, S-217622 30 mg/kg
[14] = prophylactic, S-217622 200 mg/kg

Compound: CC(C)C(=O)OC[C@H]1O[C@@H](n2ccc(NO)nc2=O)[C@H](O)[C@@H]1O [Molnupiravir, reference compound]
- Histopathological severity score ([1]; Fig. 5B, MPV group, individual animals, listed as MPV): 17 and 13
- Histopathological severity score ([1]; Fig. 5D, MPV group, individual animals, listed as MPV): 17 and 12 and 18 and 19
- lung pathology / histopathological findings of viral pneumonia [1]: prominent
- viral RNA by in situ hybridization (ISH) [1, 13]: decreased
- histopathological severity of viral pneumonia [1]: neither MPV or S-217622 could attenuate
- viral RNA by ISH [1]: Positive signals for viral RNA were also detected
- viral loads in nasal turbinates [2]: limited effect
- viral loads in the lungs [2]: decreased
- Fig. 4E: Virus titer ([2]; listed as MPV): 700000 and 600000 and 1200000
- Fig. 4G: Relative Ifng RNA level ([2]; listed as MPV): 3.06 and 2.07 and 2.71 and 2.27
- Fig. 4H: Relative Il6 RNA level ([2]; listed as MPV): 2.40 and 3.11 and 2.02 and 2.46
- Fig. 4I: Relative Il10 RNA level ([2]; listed as MPV): 3.33 and 2.30 and 2.69 and 2.83
- Fig. 4J: Relative Cxcl10 RNA level ([2]; listed as MPV): 14.61 and 18.50 and 12.76 and 10.96
- Fig. 4K: Neutralizing antibody titer ([2]; listed as MPV): 640 and 1280
- Fig. 2H: Relative Ifng RNA level ([3]; listed as MPV): 3.06 and 2.07 and 2.71 and 2.27
- Fig. 2I: Relative Il6 RNA level ([3]; listed as MPV): 2.40 and 3.11 and 2.02 and 2.46
- Fig. 2J: Relative Il10 RNA level ([3]; listed as MPV): 3.33 and 2.30 and 2.69 and 2.83
- Fig. 2K: Relative Cxcl10 RNA level ([3]; listed as MPV): 14.61 and 18.50 and 12.76 and 10.96
- viral load in the lungs of contact hamsters ([4]; […]): high viral load was detected
- Fig. 2N: Virus titer ([4]; hamster, in vivo, listed as MPV): 1250000 and 1400000 and 800000
- signal distribution of viral antigen in the lungs [5]: decreased the viral distribution

Compound: Cn1cnc(Cn2c(=O)[nH]/c(=N\c3cc4cn(C)nc4cc3Cl)n(Cc3cc(F)c(F)cc3F)c2=O)n1 [S-217622]
- Fig. 1I: Relative viral RNA to mock treated ([6]; Both stages, third column group c10-c13): 0.047 and 0.045 and 0.032
- effect on cellular entry process (0 to 2 hpi) ([6]; Calu-3, 1 μM): but not the cellular entry process of infection
- effect on post-entry process (2 to 7 hpi) ([6]; Calu-3, 1 μM): has an effect on the post-entry process
- Fig. 1I: Relative viral RNA to mock treated ([6]; Entry, first column group c0-c3): 1.24 and 0.89 and 1.15
- Fig. 1I: Relative viral RNA to mock treated ([6]; Entry, third column group c10-c13): 0.033 and 0.037 and 0.04
- Fig. 1I: Relative viral RNA to mock treated ([6]; Post-entry, first column group c0-c3): 0.007 and 0.006
- Fig. 1I: Relative viral RNA to mock treated ([6]; Post-entry, third column group c10-c13): 1.03 and 0.85 and 0.71
- effect of CP-100356 on antiviral activity [7]: enhanced
- Infection with SARS-CoV-2 (immunofluorescence) [8]: inhibited
- Histopathological severity score ([1]; Fig. 5B, S-217622 dose group 30, individual animals): 14 and 7 and 4 and 5
- Histopathological severity score ([1]; Fig. 5B, S-217622 dose group 200, individual animals): 3 and 5 and 4 and 7
- Histopathological severity score ([1]; Fig. 5D, S-217622 dose group 30, individual animals): 14 and 16 and 15 and 13
- Histopathological severity score ([1]; Fig. 5D, S-217622 dose group 200, individual animals): 17 and 19 and 20 and 6
- lung pathology / histopathological findings of viral pneumonia [1]: attenuated the lung pathology in a dose-dependent manner
- viral RNA by in situ hybridization (ISH) [1, 13]: decreased
- Histopathological severity score [1, 14]: lower than the vehicle control group
- viral RNA by in situ hybridization (ISH) [1, 14]: undetectable
- histopathological severity of viral pneumonia [1]: neither MPV or S-217622 could attenuate
- viral RNA by ISH [1]: Positive signals for viral RNA were also detected
- LDH release into basal culture medium [9]: decreased
- antiviral potency against Omicron variant (lineage BA.1) [10]: remarkable antiviral potency
- decrease of virus titer in the lung [2]: greater than 10^3 fold
- expression of Il6 [2]: decreased the expression of Il6
- peak of body weight loss [2]: 7% and 5%
- viral loads in nasal turbinates [2]: limited effect
- viral loads in the lungs [2]: decreased
- Fig. 4H: Relative Il6 RNA level ([2]; 30 mg/kg): 1.88 and 3.04 and 1.64 and 1.56
- Fig. 4J: Relative Cxcl10 RNA level ([2]; 30 mg/kg): 5.91 and 3.38 and 3.37 and 5.99
- Fig. 4C: Viral RNA ([2]; 200 mg/kg): 184497 and 149004 and 250553 and 219560
- Fig. 4H: Relative Il6 RNA level ([2]; 200 mg/kg): 1.73 and 2.57 and 2.07 and 2.20
- Fig. 4J: Relative Cxcl10 RNA level ([2]; 200 mg/kg): 0.55 and 0.70 and 0.74 and 0.64
- antiviral activity compared with nirmatrelvir in hamsters [3]: higher antiviral activity than nirmatrelvir
- body weight [3]: continuously gained weight
- decrease in viral RNA load [3]: more than 10^5 fold
- expression of inflammatory cytokines [3]: decreased the expression of inflammatory cytokines
- seroconversion [3]: No seroconversion was observed
- virus titers [3]: under the detection limit
- Fig. 2D: Viral RNA ([3]; 30 mg/kg): 9351446 and 5264474 and 6254487 and 4687980
- Fig. 2F: Virus titer ([3]; 30 mg/kg): 2500000 and 1700000 and 2600000 and 3300000
- Fig. 2I: Relative Il6 RNA level ([3]; 30 mg/kg): 1.88 and 3.04 and 1.64 and 1.56
- Fig. 2K: Relative Cxcl10 RNA level ([3]; 30 mg/kg): 5.91 and 3.38 and 3.37 and 5.99
- Fig. 2L: Neutralizing antibody titer ([3]; 30 mg/kg): 160 and 320
- Fig. 2F: Virus titer ([3]; 200 mg/kg): n.d.(=100)
- Fig. 2G: Virus titer ([3]; 200 mg/kg): n.d.(=100)
- Fig. 2I: Relative Il6 RNA level ([3]; 200 mg/kg): 1.73 and 2.57 and 2.07 and 2.20
- Fig. 2K: Relative Cxcl10 RNA level ([3]; 200 mg/kg): 0.55 and 0.70 and 0.74 and 0.64
- Fig. 2L: Neutralizing antibody titer ([3]; 200 mg/kg): n.d.(=10)
- viral load in the lungs of contact hamsters ([4]; […]): no detectable viral titers
- Fig. 2N: Virus titer ([4]; hamster, in vivo, 200 mg/kg): n.d.(=100)
- Fig. 2N: Virus titer ([4]; second block c10-c12 (six animals: contact hamsters, 6 days after co-housing), […], 200 mg/kg): n.d.(=100)
- progeny virus titers [11]: < 100
- signal distribution of viral antigen in the lungs [5]: limited
- progeny viral RNA in the culture supernatants [12]: reduced the progeny viral RNA

Compound: CC(C)(C)[C@H](NC(=O)C(F)(F)F)C(=O)N1C[C@H]2[C@@H]([C@H]1C(=O)N[C@H](C#N)C[C@@H]1CCNC1=O)C2(C)C [Nirmatrelvir]
- effect of CP-100356 on antiviral activity [7]: enhanced
